Several values for one entry are separate records, joined by “and”; a condition that tells them apart may be missing. Equal values may be shown once.
Test system: 565726-208-R1-J5-PDC complex spheroids, growth inhibition
Experiment: Anticancer human tumor 565726-208-R1-J5-PDC patient-derived pancreatic adenocarcinoma cell line growth inhibition [RAS]
Conditions: for viability, T/C: stronger effect = lower value; active means viability on the fitted dose curve at most 10% of control; inactive means the rest
Summary of the method: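 Agents were tested in combination matrices in half-log decrements from a top concentration at or near clinical Cmax (10 microM if undetermined). Targets were multi-cell spheroids of tumour lines plus HUVEC and MSC stromal cells.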
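Further: spheroids exposed to compounds for seven days before readout.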
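Wherever viability, T/C is given: 100% = DMSO vehicle control viability.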

CC(=O)OC12COC1CC(O)C1(C)C(=O)C(O)C3=C(C)C(OC(=O)C(O)C(NC(=O)OC(C)(C)C)c4ccccc4)CC(O)(C(OC(=O)c4ccccc4)C21)C3(C)C (stereo not drawn) + C#Cc1c(F)ccc2cc(O)cc(-c3ncc4c(N5CC6CCC(C5)N6)nc(OCC56CCCN5CC(F)C6)nc4c3F)c12
inactive: viability, T/C (second compound 0.0316 µM, first compound 0.0316 µM) 18.9% | viability, T/C (second compound 0.0316 µM, first compound 0.1 µM) 20.3% | viability, T/C (second compound 0.0316 µM, first compound 0.316 µM) 14.2% | viability, T/C (second compound 0.0316 µM, first compound 1 µM) 19.1% | viability, T/C (second compound 0.0316 µM, first compound 3.16 µM) 21.4% | viability, T/C (second compound 0.0316 µM, first compound 10 µM) 27% | viability, T/C (second compound 0.1 µM, first compound 0.0316 µM) 16.9% | viability, T/C (second compound 0.1 µM, first compound 0.1 µM) 20.3% | viability, T/C (second compound 0.1 µM, first compound 0.316 µM) 19.1% | viability, T/C (second compound 0.1 µM, first compound 1 µM) 15.5% | viability, T/C (second compound 0.1 µM, first compound 3.16 µM) 18.8% | viability, T/C (second compound 0.1 µM, first compound 10 µM) 29.8% | viability, T/C (second compound 0.316 µM, first compound 0.0316 µM) 18.8% | viability, T/C (second compound 0.316 µM, first compound 0.1 µM) 21.2% | viability, T/C (second compound 0.316 µM, first compound 0.316 µM) 16.1% | viability, T/C (second compound 0.316 µM, first compound 1 µM) 18.1% | viability, T/C (second compound 0.316 µM, first compound 3.16 µM) 22.8% | viability, T/C (second compound 0.316 µM, first compound 10 µM) 30.4% | viability, T/C (second compound 1 µM, first compound 0.0316 µM) 20% | viability, T/C (second compound 1 µM, first compound 0.1 µM) 21.3% | viability, T/C (second compound 1 µM, first compound 0.316 µM) 14.5% | viability, T/C (second compound 1 µM, first compound 1 µM) 17.3% | viability, T/C (second compound 1 µM, first compound 3.16 µM) 24.9% | viability, T/C (second compound 1 µM, first compound 10 µM) 26.6% | viability, T/C (second compound 3.16 µM, first compound 0.0316 µM) 19.3% | viability, T/C (second compound 3.16 µM, first compound 0.1 µM) 24.1% | viability, T/C (second compound 3.16 µM, first compound 0.316 µM) 23.5% | viability, T/C (second compound 3.16 µM, first compound 1 µM) 19.9% | viability, T/C (second compound 3.16 µM, first compound 3.16 µM) 25.9% | viability, T/C (second compound 3.16 µM, first compound 10 µM) 26.7% | viability, T/C (second compound 10 µM, first compound 0.0316 µM) 17.7% | viability, T/C (second compound 10 µM, first compound 0.1 µM) 23.9% | viability, T/C (second compound 10 µM, first compound 0.316 µM) 22.1% | viability, T/C (second compound 10 µM, first compound 1 µM) 23.1% | viability, T/C (second compound 10 µM, first compound 3.16 µM) 21% | viability, T/C (second compound 10 µM, first compound 10 µM) 22.4%
< 31.6 nM: IC50 (curve of first compound, second compound 0.0316 µM) | IC50 (curve of first compound, second compound 0.1 µM) | IC50 (curve of first compound, second compound 0.316 µM) | IC50 (curve of first compound, second compound 1 µM) | IC50 (curve of first compound, second compound 3.16 µM) | IC50 (curve of first compound, second compound 10 µM)

CC(C)NCC(C(=O)N1CCN(c2ncnc3c2C(C)CC3O)CC1)c1ccc(Cl)cc1 (stereo not drawn) + CCn1c(-c2cc(N3CCN(C)CC3)cnc2C(C)OC)c2c3cc(ccc31)-c1csc(n1)CC(NC(=O)C1CC1C)C(=O)N1CCCC(N1)C(=O)OCC(C)(C)C2
inactive: viability, T/C (second compound 0.000949 µM, first compound 0.0316 µM) 66.7% | viability, T/C (second compound 0.000949 µM, first compound 0.1 µM) 64.6% | viability, T/C (second compound 0.000949 µM, first compound 0.316 µM) 62.8% | viability, T/C (second compound 0.000949 µM, first compound 1 µM) 51.7% | viability, T/C (second compound 0.000949 µM, first compound 3.16 µM) 43.9% | viability, T/C (second compound 0.000949 µM, first compound 10 µM) 28.7% | viability, T/C (second compound 0.003 µM, first compound 0.0316 µM) 59.2% | viability, T/C (second compound 0.003 µM, first compound 0.1 µM) 58.8% | viability, T/C (second compound 0.003 µM, first compound 0.316 µM) 48.7% | viability, T/C (second compound 0.003 µM, first compound 1 µM) 41.2% | viability, T/C (second compound 0.003 µM, first compound 3.16 µM) 38.3% | viability, T/C (second compound 0.003 µM, first compound 10 µM) 21.4% | viability, T/C (second compound 0.00949 µM, first compound 0.0316 µM) 42.5% | viability, T/C (second compound 0.00949 µM, first compound 0.1 µM) 41.8% | viability, T/C (second compound 0.00949 µM, first compound 0.316 µM) 38.5% | viability, T/C (second compound 0.00949 µM, first compound 1 µM) 34.5% | viability, T/C (second compound 0.00949 µM, first compound 3.16 µM) 33.1% | viability, T/C (second compound 0.00949 µM, first compound 10 µM) 18.3% | viability, T/C (second compound 0.03 µM, first compound 0.0316 µM) 32% | viability, T/C (second compound 0.03 µM, first compound 0.1 µM) 34.1% | viability, T/C (second compound 0.03 µM, first compound 0.316 µM) 30.6% | viability, T/C (second compound 0.03 µM, first compound 1 µM) 28.5% | viability, T/C (second compound 0.03 µM, first compound 3.16 µM) 24.7% | viability, T/C (second compound 0.03 µM, first compound 10 µM) 14.7% | viability, T/C (second compound 0.0949 µM, first compound 0.0316 µM) 27% | viability, T/C (second compound 0.0949 µM, first compound 0.1 µM) 25.5% | viability, T/C (second compound 0.0949 µM, first compound 0.316 µM) 26.7% | viability, T/C (second compound 0.0949 µM, first compound 1 µM) 21% | viability, T/C (second compound 0.0949 µM, first compound 3.16 µM) 17.9% | viability, T/C (second compound 0.0949 µM, first compound 10 µM) 12.5% | viability, T/C (second compound 0.3 µM, first compound 0.0316 µM) 25.5% | viability, T/C (second compound 0.3 µM, first compound 0.1 µM) 22.5% | viability, T/C (second compound 0.3 µM, first compound 0.316 µM) 22.1% | viability, T/C (second compound 0.3 µM, first compound 1 µM) 18.8% | viability, T/C (second compound 0.3 µM, first compound 3.16 µM) 19.7% | viability, T/C (second compound 0.3 µM, first compound 10 µM) 12%
< 31.6 nM: IC50 (curve of first compound, second compound 0.00949 µM) | IC50 (curve of first compound, second compound 0.03 µM) | IC50 (curve of first compound, second compound 0.0949 µM) | IC50 (curve of first compound, second compound 0.3 µM)
1520 nM: IC50 (curve of first compound, second compound 0.000949 µM)
347 nM: IC50 (curve of first compound, second compound 0.003 µM)

CC(Nc1ccc2c(c1)OCCn1cc(N3C(=O)OCC3C(F)F)nc1-2)C(N)=O (stereo not drawn)
inactive: viability, T/C (compound 0.0316 µM) 94.9% [middle of 4 runs] | viability, T/C (compound 0.316 µM) 79.3% [middle of 4 runs] | viability, T/C (compound 1 µM) 72% [middle of 4 runs]
> 10000 nM and 9950 nM: IC50 (curve of compound)
